Laboratory results: PMC9317316, “Synthesis and Evaluation of Some New 4H-Pyran Derivatives as Antioxidant, Antibacterial and Anti-HCT-116 Cells of CRC, with Molecular Docking, Antiproliferative, Apoptotic and ADME Investigations” (Pharmaceuticals, 2022)
“And” between values parts separate entries of the source, which are not always exact repeats. Equal values may be shown once. Read-outs that look alike come from different tables or passages of the source.

How the values were obtained:
[1] = DPPH radical scavenging assay; conditions: for IC50: 0.03 to 1 mg/mL, 1 h, mean ± SD, triplicate, read-out: IC50 (mM) for DPPH Scavenging Potency
Outline: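 Ethanolic DPPH mixed with samples at 0.03 to 1 mg/mL, kept 1 h at room temperature in darkness, then absorbance read at 519 nm against compound-free control. Scavenging percentage computed as (1 − Acompound/Acontrol) × 100; IC50 interpolated from scavenging-versus-concentration plot.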

[2] = Reducing power assay (FRAC, Fe3+ to Fe2+); conditions: 0-1 mg/mL, absorbance 700 nm
Outline: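 Oyaizu method: compound (0–1 mg/mL) incubated with 0.2 M phosphate buffer pH 6.6 and 1% K3Fe(CN)6 at 50 °C for 20 min, then TCA, centrifugation, and 0.1% FeCl3 added to supernatant. Absorbance read at 700 nm; EC50 expressed in mM, BHT as reference.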

B. cereus (ATCC 14579) [3] = test: Antibacterial agar diffusion method (inhibition zone); assay type: cell-based
Outline: (§1)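 Agar diffusion: compounds applied to top agar seeded with the strain, inhibition zone measured; ampicillin (10 µg/well) as reference. Viability: 2 ×10^7 CFU/mL in BHI shaken with compound 60 min at 37 °C, serially diluted, plated, colonies counted after 24 h at 37 °C; IC50 from residual CFU, mean of three.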

B. subtilis (ATCC 6633) [4] = test: as above; assay type: cell-based
Outline: as §1

E. coli (ATCC 25966) [5] = test: as above; assay type: cell-based; conditions: E. coil (ATCC 25966)
Outline: as §1

E. faecalis (ATCC 29122) [6] = test: as above; assay type: cell-based
Outline: as §1

[7] = tested on: K. pneumonia (ATCC 700603); test: as above; assay type: cell-based
Outline: as §1

[8] = tested on: P. aeruginosa (ATCC 27853); test: as above; assay type: cell-based
Outline: as §1

S. aureus (ATCC 25923) [9] = test: as above; assay type: cell-based
Outline: as §1

S. enteric (ATCC 43972) [10] = test: as above; assay type: cell-based
Outline: as §1

[11] = tested on: S. epidermidis (ATCC 14990); test: as above; assay type: cell-based
Outline: as §1

B. cereus (ATCC 14579) [12] = test: Antibacterial viability (CFU) assay, IC50; assay type: cell-based; conditions: Bacillus cereus, ATCC14579
Outline: as §1

B. subtilis (ATCC 6633) [13] = test: Antibacterial viability (CFU) assay, IC50; assay type: cell-based
Outline: as §1

E. coli (ATCC 25966) [14] = test: Antibacterial viability (CFU) assay, IC50; assay type: cell-based; conditions: Escherichia coli, ATCC25966; E. coil (ATCC 25966)
Outline: as §1

E. faecalis (ATCC 29122) [15] = test: Antibacterial viability (CFU) assay, IC50; assay type: cell-based; conditions: Enterococcus faecalis, ATCC29122
Outline: as §1

[16] = tested on: K. pneumonia (ATCC 700603); test: Antibacterial viability (CFU) assay, IC50; assay type: cell-based; conditions: Klebsiella pneumoniae, ATCC700603
Outline: as §1

[17] = tested on: P. aeruginosa (ATCC 27853); test: Antibacterial viability (CFU) assay, IC50; assay type: cell-based; conditions: Pseudomonas aeruginosa, ATCC27853
Outline: as §1

S. aureus (ATCC 25923) [18] = test: Antibacterial viability (CFU) assay, IC50; assay type: cell-based; conditions: Staphylococcus aureus, ATCC25923
Outline: as §1

S. enteric (ATCC 43972) [19] = test: Antibacterial viability (CFU) assay, IC50; assay type: cell-based; conditions: read-out: IC50
Outline: as §1

[20] = tested on: S. epidermidis (ATCC 14990); test: Antibacterial viability (CFU) assay, IC50; assay type: cell-based; conditions: Staphylococcus epidermidis, ATCC14990
Outline: as §1

HCT-116 cells = test: Cell viability (cytotoxicity, LDH release) assay; assay type: cell-based; conditions: Homo sapiens, 24 h; for viability at 100 µg/mL: read-out: percent of viable cells
Outline: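 Human colorectal HCT-116 cells exposed to compounds at 10, 25, 50 and 100 µg/mL in DMEM with 10% FBS for 24 h at 37 °C. LDH released into the supernatant measured at 600 nm; viability given as % of untreated control OD (mean ± SD, n = 3), 0.1% Triton X-100 as positive control.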

[21] = Bacillus subtilis, ATCC6633, B. subtilis (ATCC 6633)
[22] = read-out: Mean IC50 (µM) of cytotoxicity
[23] = read-out: Mean IC50 (µg/mL) of cytotoxicity

Row | SMILES | IC50 [1] [mM] | DPPH Radical Scavenging Effenciency (%) at 1 mg/mL [1] | EC50 [2] [µM] | IZ (mm) (B. cereus (ATCC 14579) [3]) | IZ (mm) (B. subtilis (ATCC 6633) [4]) | IZ (mm) (E. coli (ATCC 25966) [5]) | IZ (mm) (E. faecalis (ATCC 29122) [6]) | IZ (mm) [7] [mm] | IZ (mm) [8] [mm] | IZ (mm) (S. aureus (ATCC 25923) [9]) | IZ (mm) (S. enteric (ATCC 43972) [10]) | IZ (mm) [11] [mm] | IC50 (B. cereus (ATCC 14579) [12]) [µM] | IC50 (B. subtilis (ATCC 6633) [13]; [21]) [µM] | IC50 (E. coli (ATCC 25966) [14]) [µM] | IC50 (E. faecalis (ATCC 29122) [15]) [µM] | IC50 [16] [µM] | IC50 [17] [µM] | IC50 (S. aureus (ATCC 25923) [18]) [µM] | IC50 (S. enteric (ATCC 43972) [19]) [µM] | other results
1 | COC(=O)C1=C(C)OC(N)=C(C#N)C1c1ccccc1C(=O)O (stereo not shown) [4a, 6-Amino-4-(2-carboxy-phenyl)-5-cyano-2-methyl-4H-pyran-3-carboxylic acid methyl ester] | 2.29 ± 0.134 | 24.15 ± 1.62% | 827 ± 45 | 7.50 ± 0.71 | 5.20 ± 0.28 | 4.5 ± 0.71 | 9.00 ± 1.41 | 2.5 ± 0.7 | 5.5 ± 0.7 | 8.00 ± 1.41 mm | 4.5 ± 0.7 | 9.50 ± 0.71 | 71.8 ± 2.04 | 64.4 ± 3.37 | 138 ± 6.68 | 49.6 ± 1.81 | 131 ± 3.5 | 37.6 ± 0.5 | 41.2 ± 2.48 | 120 ± 1.91 | IC50 [20]: 42.3 ± 1.33 µM; viability at 100 µg/mL (HCT-116 cells): 46%; IC50 (HCT-116 cells; [22]): 165 ± 14.4 µM; IC50 (HCT-116 cells; [23]): 52 ± 4.54 µg/mL; melting point: 216 to 218 °C
2 | CC1=C(C(=O)OCc2ccccc2)C(c2ccccc2Cl)C(C#N)=C(N)O1 (stereo not shown) [4l, 6-Amino-4-(2-chloro-phenyl)-5-cyano-2-methyl-4H-pyran-3-carboxylic acid benzyl ester] | 0.919 ± 0.026 | 70.20% and 70.20 ± 1.70% | 801 ± 19 | 10.00 ± 1.41 | 11.50 ± 0.71 | 3.5 ± 0.7 | 6.00 ± 1.41 | 2.5 ± 0.7 | 4.5 ± 0.7 | 9.00 mm and 9.00 ± 1.41 mm | 4.0 ± 0.0 | 10.50 ± 0.71 | 33.2 ± 2.42 | 23.6 to 36.8 | 90.1 ± 2.63 | 37.8 ± 1.5 | 77.5 ± 7.08 | 72.7 ± 2.63 | 31.1 ± 0.55 | 77.6 ± 1.58 | IC50 (B. subtilis (ATCC 6633) [13]; B. subtilis (ATCC 6633)): 32.6 ± 1.5 µM; IC50 [20]: 33.4 ± 1.1 µM; viability at 100 µg/mL (HCT-116 cells): 11 to 32.5%; IC50 (HCT-116 cells; [22]): 93.4 ± 4.63 µM; IC50 (HCT-116 cells; [23]): 35.5 ± 1.77 µg/mL; melting point: 162 to 164 °C
3 | Cc1[nH]nc2c1C(c1cccc(O)c1Cl)C(C#N)=C(N)O2 (stereo not shown) [5a, 6-Amino-4-(2-chloro-3-hydroxy-phenyl)-3-methyl-2,4-dihydro-pyrano[2,3-c]pyrazole-5-carbonitrile] | 0.826 ± 0.092 | 45.50 ± 2.12% | 363 ± 47 | 12.50 ± 0.71 | 12.50 ± 0.71 | 2.8 ± 0.21 | 10.50 ± 0.71 | 6.0 ± 1.4 | 5.5 ± 0.7 | 14.00 ± 1.40 mm | 4.5 ± 0.7 | 13.50 ± 0.71 | 62.43 ± 0.46 | 62.43 ± 0.46 | 110 ± 5.95 | 51.9 ± 1.39 | 96.5 ± 4.96 | 85.9 ± 3.3 | 43.9 ± 1.39 | 105 ± 1.32 | IC50 [20]: 54.8 ± 1.88 µM; viability at 100 µg/mL (HCT-116 cells): 11 to 32.5%; IC50 (HCT-116 cells; [22]): 189 ± 10.8 µM; IC50 (HCT-116 cells; [23]): 60 ± 3.28 µg/mL; melting point: 240 to 242 °C
